For two compounds, IC50 results are on record in paper PMC4007590, “Development of an oligonucleotide-based fluorescence assay for the identification of tyrosyl-DNA phosphodiesterase 1 (TDP1) inhibitors” (Analytical Biochemistry, 2014).

This assay concerns the target T1, tyrosyl-DNA phosphodiesterase 1 (TDP1) (Homo sapiens, UniProt Q9NUW8).
T1 construct: catalytic domain of human TDP1
Briefly: Gyrasol fluorescence quench assay, FITC-phosphotyrosyl […]mer oligonucleotide substrate, recombinant TDP1. It counts as biochemical.

Like-named read-outs stand apart in the source and are kept apart here.

T1 sequence (Q9NUW8 149-608 limits assumed): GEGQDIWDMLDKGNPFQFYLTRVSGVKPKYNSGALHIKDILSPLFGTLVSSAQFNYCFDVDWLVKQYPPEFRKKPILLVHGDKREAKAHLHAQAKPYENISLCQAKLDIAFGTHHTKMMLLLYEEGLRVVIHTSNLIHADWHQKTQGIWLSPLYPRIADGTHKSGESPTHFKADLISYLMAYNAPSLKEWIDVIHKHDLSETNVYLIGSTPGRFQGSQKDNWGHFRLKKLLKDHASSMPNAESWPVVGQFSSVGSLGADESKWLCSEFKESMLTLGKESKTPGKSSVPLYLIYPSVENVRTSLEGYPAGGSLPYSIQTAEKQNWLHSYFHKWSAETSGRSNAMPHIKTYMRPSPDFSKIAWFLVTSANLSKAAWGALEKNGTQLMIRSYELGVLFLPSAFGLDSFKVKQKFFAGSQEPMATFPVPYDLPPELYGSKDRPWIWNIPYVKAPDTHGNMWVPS

For the compound `Cc1ccc(C(=O)Nc2ccc(S(=O)(=O)O)c3cc(S(=O)(=O)O)cc(S(=O)(=O)O)c23)cc1NC(=O)c1cccc(NC(=O)Nc2cccc(C(=O)Nc3cc(C(=O)Nc4ccc(S(=O)(=O)O)c5cc(S(=O)(=O)O)cc(S(=O)(=O)O)c45)ccc3C)c2)c1` [Suramin], under “read-out: IC50”, the IC50 came to 5 µM. Turning to `[O]=[V]([OH])([OH])[OH]` [sodium orthovanadate], the IC50 was 4 µM.
